According to patent publication US20210023115A1, “COMPOSITION OF ANTI-TUMOR COMPOUND DRUG AND APPLICATION THEREOF IN FIGHTING TUMORS” (HANGZHOU XINGAO BIOTECHNOLOGY CO. LTD, priority 2018, published 2021):

System: subcutaneous transplanted tumors (CT26, LL/2, A375, MNK-45, SK-OV-3)
Experiment: Inhibition of growth of subcutaneous transplanted tumors in tumor-bearing mouse model
Type: in vivo
Details: 10 mg/kg
Text: Embodiment 4: Test of Anti-Tumor Effect (i.e., The Inhibition Effect on the Growth of Subcutaneous Transplanted Tumors in Animals) of the Anti-Tumor Compound Drug with a Tumor-Bearing Mouse Model
BALB/c ordinary mice and C57/BL6 ordinary mice, male, 18-20 g in weight, 7-8 weeks old, SPF grade, purchased from Shanghai SLAC Laboratory Animal Co., Ltd. [Laboratory Animal Quality Certificate Number: SCXK (Shanghai) 2007-0005].
Mice are given intravenous injections, and one dose group is set: cGAMP, 10 mg/kg; compound anti-tumor drug, 10 mg/kg
Positive control: cGAMP, 10 mg/kg in dose
Administration route: administration by intraperitoneal injection
Administration volume: 100 μl/animal
Number of times of administration: continuous administration for 21 days, once every day
Number of animals in each group: 10
Mouse colorectal cancer cell line CT26, mouse Lewis lung cancer cell line LL/2, human ovarian cancer cell line SK-OV-3, human melanoma cell line A375, and human gastric cancer cell line MNK-45, which are all purchased from the Cell Bank of the Chinese Academy of Sciences.
The administration is continued for 21 days. 21 days later, the mice are killed and the tumors are weighed. Tumor inhibition rate=[1−mean tumor weight of experimental group/mean tumor weight of group A)]×100%.
Data is expressed with x±s, and processed with SPSS10.0 software. […]

Compound: Nc1nc2c(ncn2[C@@H]2O[C@@H]3COP(=O)(O)O[C@H]4[C@@H](O)[C@H](n5cnc6c(N)ncnc65)O[C@@H]4COP(=O)(O)O[C@@H]2[C@@H]3O)c(=O)[nH]1 [cGAMP, Cyclic [G(2′,5′)pA(3′,5′)p]]
- growth of tumors (once every day for 21 days, subcutaneous transplanted tumor models in mice): obviously inhibit the growth of tumors
- weights of tumors vs negative control group (after administration for 21 days, P<0.05, P<0.01): significantly lower than those of the negative control group
